Test results from US9738786B2, “Dyes for labelling molecular ligands” (ILLUMINA CAMBRIDGE LIMITED, priority 2011, dated 2017).
One block for each compound: values may come before it.

Tests used:
Format in all cases: physicochemical
[1] = Fluorescence of dye solutions in water
[2] = Stability over time (optical density of solution); details: after 14 days
[3] = Photo-stability of dye solutions in water under irradiation
[4] = Absorption spectra of dye solutions in water; details: for absorption maximum: in water
[5] = Stability of Dye 5A and 5B versus commercial dyes (FIG. 3)
[6] = Spectral properties of dye 9 (ScanMix)
Experimental: [drawing 69] 3 ml of acetic anhydride and 0.3 g triethylamine were heated 20 minutes at 110° C., acetic anhydride-removed under reduced pressure then the product precipitated with diethyl ether. The product was purified by HPLC. The absorption maximum of equimolar solutions in ScanMix of new dye 9 was 536 nm, 0.162 a.u.
A mixture of 0.39 g (1 mmol) of 4-ethyl-2-(2-anilino)vinyl-oxazolo[4,5-b]pyridinium iodide, 0.35 g (1 mmol) 2,3,3-trimethyl-1-(5-carboxypentyl)-3H-indolium-5-sulfonate, 3 ml of acetic anhydride and 0.13 g of sodium acetate was heated 20 minutes at 110° C. Acetic anhydride was removed under reduced pressure then the product precipitated with diethyl ether. The product was purified by flash column. […] This new dye 9 (max 583 nm, 447 a.u.) has stronger fluorescence compared with DG527 (594 nm, 401 a.u.).

[7] = Self-quenching of fluorescence with increasing dye/protein ratio (FIG. 1); details: relative to dye B with six sulfonic groups
[8] = in water, same optical density, excitation at 545 nm
[9] = Table 1, symmetrical dyes, solutions in water

optical density remaining [2]: 85% | fluorescence intensity [1, 8]: 422 a.u. | wavelength of fluorescence maximum [1, 8]: 565 nm
Compound: CCN1C(=CC=CC2=[N+](CCCCCC(=O)O)c3ccc(S(=O)(=O)O)cc3C2(C)C)C(C)(C)c2cc(S(=O)(=O)[O-])ccc21 [Cy3, reference compound]

fluorescence intensity [6]: 447 a.u. | fluorescence max [6]: 583 nm | absorption maximum ([6]; compared to laser excitation wavelength (532 nm)): about 536 nm | absorbance at absorption maximum ([6]; equimolar solutions in ScanMix): 0.162 a.u. | absorption maximum ([6]; equimolar solutions in ScanMix): 536 nm
Compound: CC[n+]1cccc2oc(/C=C/C=C/C=C3/N(CCCCCC(=O)O)c4ccc(S(=O)(=O)[O-])cc4C3(C)C)nc21 [Dye 9]

absorption maximum [4]: 567 nm
Compound: CC1(C)C(/C=C/C=C2/N(c3cccc(S(=O)(=O)O)c3)c3cc(S(=O)(=O)[O-])c4cc(S(=O)(=O)O)ccc4c3C2(C)C)=[N+](CCCCCC(=O)O)c2ccc(S(=O)(=O)O)cc21 [Example XX]

fluorescence strength relative to Dy681 ([1]; in water): more than 3 times | fluorescence max ([1]; water): 687 nm | absorption maximum [4]: 664 nm
Compound: CC1(C)C(/C=C/C=C/C=C2/N(c3cccc(S(=O)(=O)O)c3)c3cc(S(=O)(=O)[O-])c4cc(S(=O)(=O)O)ccc4c3C2(C)C)=[N+](CCCCCC(=O)O)c2ccc(S(=O)(=O)O)cc21 [NR665]

self-quenching with increasing dye concentration [7]: more readily self-quenched
Compound: CC[N+]1=C(/C=C/C=C/C=C2/N(CCCCCC(=O)O)c3ccc(S(=O)(=O)O)cc3C2(C)C)C(C)(C)c2cc(S(=O)(=O)[O-])ccc21 [dye A]

The remaining lines, values behind:

Compound: 1,1,3-trimethyl-3-(3-sulfophenyl)-1H-benzo[e]indolium-disulfonate [CP-13B]
fluorescence in water ([1]; water): strong fluorescence

Compound: CC1(C)C(/C=C/C(=C/C=C2/N(c3cccc(S(=O)(=O)[O-])c3)c3ccc(S(=O)(=O)[O-])cc3C2(C)C)c2ccc(C(=O)O)cc2)=[N+](c2cccc(S(=O)(=O)[O-])c2)c2ccc(S(=O)(=O)[O-])cc21.[Na+].[Na+].[Na+] [Dye 1]
remaining initial fluorescence intensity ([3]; solution in water, after 25 days of irradiation): 85% | photostability relative to Alexa 647 ([3]; solutions in water): improved photostability | absorption maximum [4]: 658 nm

Compound: CC1(C)C(/C=C/C(=C/C=C2/N(c3cccc(S(=O)(=O)O)c3)c3ccc4c(S(=O)(=O)[O-])cc(S(=O)(=O)O)cc4c3C2(C)C)c2ccc(C(=O)O)cc2)=[N+](c2cccc(S(=O)(=O)O)c2)c2ccc3c(S(=O)(=O)O)cc(S(=O)(=O)O)cc3c21 [Dye 5A]
stability compared with commercial dyes [5]: better stability | fluorescence intensity compared with Dy681 and Dy682 [1]: higher | shift of fluorescence maximum compared with Dy681 and Dy682 [1]: red shifted | absorption maximum [4]: 686 nm

Compound: CCN1/C(=C/C=C(/C=C/C2=[N+](CC)c3cc(S(=O)(=O)O)c4cc(S(=O)(=O)O)ccc4c3C2(C)C)c2ccc(C(=O)O)cc2)C(C)(C)c2c1cc(S(=O)(=O)[O-])c1cc(S(=O)(=O)O)ccc21 [Dye 6]
relative fluorescence intensity [1]: higher relative fluorescence intensity | absorption maximum [4]: 673 nm

Compound: CC1(C)C(/C=C/C=C/C=C2/N(c3ccccc3)c3ccccc3C2(C)C)=[N+](c2ccccc2)c2ccccc21 [S0 (2), reference compound]
Fluorescence intensity, % ([1]; Table 1, symmetrical dyes in water, S0 (2) = 100): 100% | Fluorescence max, nm [1, 9]: 674 nm | Absorption max, nm [4, 9]: 649 nm
